Assay results reported in patent EP1049466B1, “CARBONIC ANHYDRASE INHIBITOR FOR INCREASING OXYGEN TENSION IN THE OPTIC NERVE AND RETINA” (Stefansson, Einar, priority 1998, dated 1999).

How the values were obtained:
[1] = Continuous arterial blood pressure recording in the experimental pigs; assay type: in vivo, Danish agricultural pigs (landrace); settings: after intravenous injection of 500 mg (Figure 7)
Procedure: Danish agricultural pigs (landrace), 25-33 kg in weight and brought up in specific pathogen free environment, were used. Their treatment was supervised by a veterinarian and followed the decrees of the ARVO Statement for the use of animals in ophthalmic and vision research. All experiments were conducted during daytime. The pigs were anaesthetised with midazolam (dormicum®) and ketamine followed by intravenous application of 250 mg mebumal, fentanylum (Haldid®, Jansen Cilag), 0.5 mg an hour, pancuron bromide (Pavulon®, Organon Technica, Sweden) 16 mg an hour, mebumal (Hospital Pharmacies, Denmark) 50 mg per ml as needed and atropine as needed. The right pupil was dilated with 1% tropicamide eye drops (Mydriacyl® and 2.5% phenylephrine eye drops. A arterial line was placed in a femoral artery for continuous measurement of blood pressure and intermittent blood gas analysis. A venous line was placed in a femoral vein for continuous infusion of the anaesthetics and saline as needed. A rectal thermoprobe provided continuous reading of body temperature.
Arterial blood samples were obtained at regular intervals and arterial PO2, pH and PCO2 were measured with a ABL 605 blood gas analyser (Radiometer, Denmark) (table 1). Arterial blood pressure, electrocardiogram and rectal temperature were monitored continuously and it was verified that these values were within normal limits. […]

optic nerve = experiment: Oxygen tension of optic nerve (ONPO2), polarographic electrode in the vitreous humour 0.5 mm over the optic disc of anaesthetised pigs; assay type: in vivo, Danish agricultural pigs (landrace)
Procedure: The pig was secured laterally on an operating table and a speculum was placed between the right eyelids. A conjunctival peritomy was performed and 3-0 silk sutures placed under the rectus muscle tendons to immobilise the eye. A sclerotomy was made 2.5 mm behind the limbus in the superonasal quadrant and a cannula placed, through which the polarographic electrode was advanced into the vitreous cavity. The electrode was held in a micromanipulator (Stoelting Inc. USA) and placed in the vitreous humour approximately 0.5 mm over the optic disc in an area not covered by the large vessels. The entire operation was performed using a Zeiss operating microscope and the electrode was placed using an indirect ophthalmoscope or the microscope and a flat corneal contact lens.
A silver-silver chloride reference electrode was placed in the conjunctival sac of the same (right) eye and kept moist with saline. The polarographic oxygen meter consists of a 100 micrometer platinum-iridium electrode inside a 20 gauge needle (Model 761), a silver-silver chloride reference electrode and a chemical microsensor (Model 1251, Diamond Electrotech Inc., Ann Arbor Mich., USA). The recording system was calibrated before and after each experiment in a calibration cell (Diamond Electrotech. Inc.) at 37 degrees Celsius in 0.9% saline using 100% N2, 5.0%02-95%N2 and 20.000%02-80%N2 (provided by AGA Inc. Denmark). The barometric pressure was monitored, and the oxygen tension recordings were adjusted for barometric pressure, and expressed as mmHg.
The experiments were all run with typical indoor illumination (white fluorescent light tubes (Philips TLM 4OW/29RS)). The ambient light intensity at the level of the pig's eye was measured with a Mavolux digital light meter (Gossen GmbH, Germany) and found to be 497 lux or 6 watt per square meter.
Each experiment was begun with the animal breathing 100% oxygen. Once a stable ONPO2 level was obtained the breathing mixture was changed to air, containing 21% oxygen, and a stable level obtained again. In some experiments the breathing mixture was changed to 20.000% O2 followed by 5.19% CO2, 19.9% O2 (N2 to balance), followed by 20.000% O2.
Polarographic oxygen electrodes were placed in the vitreous humour 0.5 mm above the optic disc in anaesthetized pigs. Arterial blood pressure and gasses were monitored and ONPO was recorded continously with various breathing gasses.

[2] = oral; blue field entopic technique; cited from earlier work
[3] = intravenous; cited from earlier work
[4] = cited from earlier work
[5] = intravenous administration; cited from earlier work

## CC(=O)Nc1nnc(S(N)(=O)=O)s1 [acetazolamide]
[1]
  arterial blood pressure: transient lowering
Optic nerve; after 500 mg intravenous injection, anaesthetised pigs, mean ± SD
  ONPO2 after injection: 30.9± 10.0 mmHg
Optic nerve; baseline before 500 mg intravenous injection, anaesthetised pigs, mean ± SD
  ONPO2 before injection: 23.6± 9.5 mmHg
Optic nerve; intravenous, dorzolamide effect seen with 6 to 500 mg (Figures 4 and 8)
  dose dependence of the effect on ONPO2: dose dependent
Optic nerve; summary over the doses given, anaesthetised pigs, n=4 each, p=0.046 (dorzolamide), p=0.005 (acetazolamide)
  raised the optic nerve oxygen tension by: 15-35%
[2]
  macular blood flow: no effect
[3]
  retinal blood flow: increased
[4]; in vivo
  flow velocity in the intracranial arteries: increased
  flow velocity in the ophthalmic artery: decrease
[4]; mainly originating from the choroidal circulation
  ocular pulsatile blood flow: decrease
[5]
  cerebral blood flow: increased

## CO2
Optic nerve; breathing 5.19% CO2 and 19.9% O2 (N2 to balance), n=4, p<0.001
  ONPO2 in response to breathing 5.19% CO2: 28.9 ± 3.6 mmHg
Optic nerve; breathing 20% O2, n=4
  ONPO2 before breathing 5.19% CO2: 20.8 ± 5.6 mmHg
